The record followed here is publication PMC7466040, “Sevanol and Its Analogues: Chemical Synthesis, Biological Effects and Molecular Docking” (Pharmaceuticals, 2020).

Assay [1] concerns ICR male mice. Description: CFA-induced paw oedema. As to conditions: p.o. only, not i.v. or i.n., 2, 4, 8 and 24 h. Type of assay: in vivo.
The next assay deals with T1, rat ASIC3 (Rattus norvegicus, UniProt O35240).
T1 construct: expressed in transfected cells; host or cells: Xenopus laevis oocytes (cRNA injection)
T1 sequence (O35240 1-533): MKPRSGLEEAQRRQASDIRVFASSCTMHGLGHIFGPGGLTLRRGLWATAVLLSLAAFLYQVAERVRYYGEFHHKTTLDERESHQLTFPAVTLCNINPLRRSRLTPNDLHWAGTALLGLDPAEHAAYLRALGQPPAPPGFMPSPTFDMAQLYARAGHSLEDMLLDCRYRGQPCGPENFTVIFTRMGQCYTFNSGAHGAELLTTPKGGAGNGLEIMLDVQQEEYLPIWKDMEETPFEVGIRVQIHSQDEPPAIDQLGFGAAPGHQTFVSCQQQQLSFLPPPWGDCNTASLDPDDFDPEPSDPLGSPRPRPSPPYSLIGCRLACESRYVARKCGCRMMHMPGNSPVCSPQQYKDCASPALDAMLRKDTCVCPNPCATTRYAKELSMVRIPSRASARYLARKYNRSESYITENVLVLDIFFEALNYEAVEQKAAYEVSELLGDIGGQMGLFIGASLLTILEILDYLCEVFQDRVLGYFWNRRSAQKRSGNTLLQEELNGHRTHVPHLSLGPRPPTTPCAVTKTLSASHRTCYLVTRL
Kind of assay: Two-electrode voltage clamp on X. laevis oocytes expressing rat ASIC3. The class given is cell-based. On the procedure:
Testing the activity of synthetic sevanol (s706) (as a mixture of 75% of sevanol and 25% of isosevanol) and its analogues (s590, EA, and s788) was carried out by the standard two-electrode voltage clamp method on X. laevis oocytes expressing rat ASIC1a and ASIC3 channels. The activation of the channels was performed using a rapid change of the solution from conditioning pH 7.4 to a solution with pH 5.5. Sevanol and its two analogues, s590 and EA, inhibited ASIC1a and ASIC3 channels.
Oocytes were harvested from female frogs anaesthetized with tricaine methane sulfonate (MS222) (0.17% solution), and the surgery was performed in an ice bath to avoid heavy bleeding. Defolliculated stage IV and V cells were injected with 2.5 and 10 ng cRNA, synthesized from PCi plasmids containing the rat ASIC1a and rat ASIC3 isoforms, respectively, using the Nanoliter 2000 microinjection system (World Precision Instruments, USA). The injected oocytes were kept for 2–3 days at 17 to 19 °C, and then for up to 5 days at 15 °C in a ND96 medium containing (in mM) 96 NaCl, 2 KCl, 1.8 CaCl2, 1 MgCl2, and 5 HEPES titrated to pH 7.4 with NaOH supplemented with gentamycin (50 μg/mL). Two-electrode voltage clamp recordings were performed at a holding potential of −50 mV using a GeneClamp 500 amplifier (Axon Instruments), and the data were filtered at 20 Hz and digitized at 100 Hz by an AD converter L780 (LCard, Russia). Microelectrodes were filled with 3 M KCl. The conditioning bath solution was ND96; the pH was adjusted to 7.4. The activating test solution was constructed based on the ND-96 buffer, in which 5 mM HEPES was replaced with 10 mM MES and pH was adjusted to 5.5. A computer-controlled valve system was used to achieve a rapid solution exchange in the recording chamber. A four parameter logistic equation was used for the curve-fitting analysis: F(x) = ((a1 − a2)/(1 + (x/x0)n)) + a2, where x is the concentration of the compound; F(x) is the response value at a given concentration of the compound; a1 is the control response value (fixed at 100%); x0 is the IC50 value; n is the Hill coefficient (slope factor); and a2 is the response value at the maximal inhibition (% of control).
Figure 2 The inhibitory activity of sevanol (s706) and its analogues. Currents were elicited by a drop from pH 7.4 to 5.5; the holding potential was −50 mV; (A,C) are dose–response curves for s706, s590 and EA inhibitory effects on ASIC1a and ASIC3 channels, respectively; (B,D) are reciprocal IC50 values for s706, s590 and EA inhibitory effects on ASIC1a and ASIC3 channels, respectively. The data were fitted by the logistic equation. Each point is the mean ± SEM of 5–6 measurements. * p < 0.05, ** p < 0.005.
In general terms: In two-electrode clamp one electrode senses voltage and the other passes current.

Assay [2] deals with ICR male mice. Description: Complete Freund's adjuvant-induced thermal hyperalgesia (hot plate). As to conditions: hot plate 53 °C. Type of assay: in vivo. On the procedure:
Specific pathogen-free outbred ICR male mice (6 to 8 weeks old, weighing 29 to 33 g) were obtained from the Animal Breeding Facility of the Branch of the Shemyakin-Ovchinnikov Institute of Bioorganic Chemistry of the Russian Academy of Sciences (Pushchino). The animals were acclimatized for 2 weeks before the experimental procedures, and were kept in two-corridor barrier rooms under a controlled environment: a temperature of 20 to 24 °C, a relative humidity of 30% to 60%, and a 12 h light cycle. The animals were housed in Type 3 standard polycarbonate cages (820 cm2) on bedding (LIGNOCEL BK 8/15, JRS, Germany), with ad libitum access to feed (SSNIFF V1534-300, Spezialdiaeten, GmbH) and filtered tap water. The mouse cages were also supplied with material for environmental enrichment, i.e., Mouse House (Techniplast, Italy). Sevanol or the vehicle was administered intravenously, intranasally and orally (30 min before testing).
The development of the inflammation and thermal hyperalgesia of the paw was induced by the injection of the oil/saline (1:1) CFA emulsion into the dorsal surface of the hind paw of the mice (20 μL/paw) 24 h before the measurement. Saline (20 μL) was injected into the control mice. The inflamed paw withdrawal latencies to thermal stimulation were measured on a hot plate device (Hot Plate Analgesia Meter, Columbus Instruments) with a set temperature of 53 ± 0.1 °C and a cut-off time of 60 s.
Figure 5 The analgesic and anti-inflammatory effects of sevanol following intravenous, intranasal and per os administration. The effect of sevanol on the acetic acid induced writhing (A–C) and on the mice withdrawal latency on a hot plate in the thermal hyperalgesia test after CFA injection (D–F) upon intravenous (A,D), intranasal (B,E) and oral (C,F) administration. […] The results are presented as the mean ± SD (n = 6–10). The p-values of the sevanol groups vs. the saline group are based on an analysis of variance and on Tukey’s test; * p < 0.05, ** p < 0.005, *** p < 0.001.

As for `O=C(O)CC(C(=O)O)C(OC(=O)C1=Cc2cc(O)c(O)cc2C(c2ccc(O)c(O)c2)C1C(=O)OC(C(=O)O)C(CC(=O)O)C(=O)O)C(=O)O` (stereo not shown) [sevanol], the “paw oedema reduction” value with ICR male mice [1] was “significant reduction in paw oedema”. For the same compound, the IC50 on rat ASIC3 (X. laevis oocytes, pH drop 7.4 to 5.5, holding potential −50 mV, mean ± SEM of 5–6, read-out: IC50, inhibition of ASIC3 current) came to 175 ± 18 µM. Moreover, the “maximal current block, ASIC3” value at rat ASIC3 (pH 7.4 to 5.5, effect reversible) is reported as 100%. Further, the “effectiveness in inhibiting ASIC3 relative to ASIC1a” value on rat ASIC3 (ratio of ASIC1a and ASIC3 inhibition) amounted to 1.3 times. Further, in the assay with ICR male mice [2] (intranasal), the “dose at which reversal of CFA-induced thermal hyperalgesia reached statistical significance, i.n.” value turned out to be 1 mg/kg. Moreover, the “dose at which reversal of CFA-induced thermal hyperalgesia reached statistical significance, i.v.” value in the assay with ICR male mice [2] (intravenous) is recorded as 1 mg/kg. Moreover, the “dose at which reversal of CFA-induced thermal hyperalgesia was statistically significant, p.o.” value with ICR male mice [2] (oral) stood at 0.1 mg/kg.

One may read the IC50 as the midpoint of a concentration-inhibition curve.
